Experimental data from US10377746B2, “Indolin-2-one derivatives” (Hoffmann-La Roche Inc., priority 2015, dated 2019).

Assays:
mouse ENT-1 transporter = mouse ENT-1 transporter (Mus musculus (Mouse), UniProt Q9JIM1); assay: Determination of adenosine transport activity (ENT1, [3H]-adenosine uptake); type: cell-based; settings: stable cells expressing mouse ENT-1; [2,8-3H]-adenosine 6 nM, 20 min
Method: To measure adenosine transport activity of ENT-1 mammalian cells, stable cells expressing the mouse ENT-1 transporter were plated on day 1 in 96-well culture plates at the density of 60,000 cells/well, in complete DMEM/F12 medium supplemented with glutamax, 10% FBS and 10 μg/ml puromycin. On day 2, the medium was aspirated and the cells were washed twice with uptake buffer (10 mM Hepes-Tris, pH 7.4 containing 150 mM NaCl, 1 mM
CaCl2, 2.5 mM KCl, 2.5 mM MgSO4, 10 mM D-glucose) (UB). For inhibition experiments, cells were then incubated at RT with various concentrations of compounds with 1% DMSO final. Non-specific uptake was defined in the presence of 10 μM S-(4-Nitrobenzyl)-6-thioinosine (NBTI, Sigma Cat #N2255).
A solution containing [2,8-^3H]-adenosine 6 nM (40 Ci/mmol, American Radiolabeled chemicals Inc, Cat #ART 0287A) was then immediately added to the wells. The plates were then incubated for 20 min with gentle shaking and the reaction was stopped by aspiration of the mixture and washing (three times) with ice-cold UB. The cells were lysed by the addition of scintillation liquid, shaken 3 hours and the radioactivity in the cells was estimated using a microplates scintillation counter (TopCount NXT, Packard).

[1] = tested on: L-687,414-induced hyperlocomotion; assay: L-687,414-induced hyperlocomotion; type: in vivo, mouse; settings: mice; 30 mg/kg ip, 15 min before 50 mg/kg s.c. L-687,414
Method: The described compounds of formula I reduce L-687,414-induced hyperlocomotion. This was assessed by using a computerized Digiscan 16 Animal Activity Monitoring System (Omnitech Electronics, Columbus, Ohio) to quantify locomotor activity. Animals were kept under a 12 h light/dark cycle and experiments were performed during the light period. Each activity monitoring chamber consisted of a Plexiglas box (41×41×28 cm; W×L×H) with sawdust bedding on the floor surrounded by invisible horizontal and vertical infrared sensor beams. The test boxes were divided by a Plexiglas cross providing each mouse with 20×20 cm of moving space. Cages were connected to a Digiscan Analyzer linked to a computer that constantly collected the beam status information. Records of photocell beam interruptions for individual animals were taken every 5 min over the duration of the experimental session and the sum of the first 6 periods was used as the final parameter. At least 8 mice were used in each treatment group. Compounds were administered i.p. 15 min before a s.c. injection of 50 mg/kg of L-687,414. Mice were then transferred from their home cage to the recording chambers for a 15-min habituation phase allowing free exploration of the new environment. Horizontal activity was then recorded for a 30-min time period. The % inhibition of L-687,414-induced hyperlocomotion was calculated according to the equation: ((Veh+L-687,414horizontal activity−drug+L-687,414horizontal activity)/Veh+L-687,414horizontal activity)×100
ID50 values, defined as doses of each compound producing 50% inhibition of L-687,414-induced hyperlocomotion, were calculated by linear regression analysis of a dose-response data using an Excel-based computer-fitting program.
As data was not presupposed to be normally distributed, groups treated with test compounds were statistically compared with the control (vehicle-treated) group using one-tailed Mann Whitney U tests. […]

[2] = tested on: behavioral signature of compound-treated mice; assay: SmartCube behavioral signature similarity analysis; type: in vivo, mouse; settings: for SmartCube similarity to major classes of compounds: i.p., in words; for discrimination rate vs Clozapine (1.0 mg/kg) / discrimination rate vs Olanzapine (0.25 mg/kg) / discrimination rate vs Risperidone (0.06 mg/kg): rate <=0.70 = similar
Excerpt: In addition to the reversal of L-687,414 induced hyperlocomotion experiment as described above, some compounds of the present invention have been tested in SmartCube®, an automated system in which the behaviors of compound-treated mice in response to multiple challenges are captured by digital video and analyzed with computer algorithms (Roberds et al., Frontiers in Neuroscience, 2011, Vol. 5, Art. 103, 1-4; Vadim Alexandrov, Dani Brunner, Taleen Hanania, Emer Leahy Eur. J. Pharmacol. 2015, 750, 82-99). In this way, the neuro-pharmacological effects of a test compound can be predicted by similarity to major classes of compounds, such as antipsychotics, anxiolytics and antidepressants.
SmartCube® was used to compare the behavioral signature of a test compound to a database of behavioral signatures obtained from a large set of clinically approved reference drugs, grouped per indications. In this way, the neuro-pharmacological effects of a test compound can be predicted by similarity to major classes of compounds, such as antipsychotics, anxiolytics and antidepressants. This approach is ideally suited to screen collections of existing drugs or drug candidates with previously unknown neuropharmacology, which could expedite the development of new and unexpected treatments for psychiatric disorders.
Some compounds of the present invention were injected i.p. at different doses 15 minutes before the test. At least 8 mice were used in each treatment group. Digital videos of the subjects were processed with computer vision algorithms to extract over 2000 dependent measures including frequency and duration of many different behavioral states. The results of the classifications are presented as bar charts for each compound and dose (mg/kg), the Y-axis indicates the relative probability that the test compound will show efficacy in the specific CNS indication.
Compounds of the present invention show similar signatures to those of atypical antipsychotics. An independent analysis was performed on the unclassified data to determine the similarity of the example compounds to active doses of known atypical antipsychotics. For this analysis, we use discrimination rate as the measure of separability between the two drugs, i.e. one drug's “distinguishability” from another. A rate equal to 50% (or 0.5) corresponds to zero distinguishability. […] In most cases, the example compounds show a similarity to risperidone, clozapine and olanzapine with a discrimination rate of ≤0.70.

Sequence of mouse ENT-1 transporter (Q9JIM1 whole entry): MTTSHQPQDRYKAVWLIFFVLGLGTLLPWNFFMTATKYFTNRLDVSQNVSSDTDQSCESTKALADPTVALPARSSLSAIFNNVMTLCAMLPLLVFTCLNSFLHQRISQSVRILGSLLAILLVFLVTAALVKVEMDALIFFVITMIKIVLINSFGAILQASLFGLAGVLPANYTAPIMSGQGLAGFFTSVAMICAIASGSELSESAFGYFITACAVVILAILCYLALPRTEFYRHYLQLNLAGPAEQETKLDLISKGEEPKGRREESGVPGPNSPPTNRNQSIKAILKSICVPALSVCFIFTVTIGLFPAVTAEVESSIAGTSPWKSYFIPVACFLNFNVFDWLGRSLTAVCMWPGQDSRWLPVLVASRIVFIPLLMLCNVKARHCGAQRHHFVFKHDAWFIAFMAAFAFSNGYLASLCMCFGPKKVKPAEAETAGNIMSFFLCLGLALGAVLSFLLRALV

| Compound | IC50 (mouse ENT-1 transporter) [nM] | further results |
| --- | --- | --- |
| 3,3-Dimethyl-6-(2-methyl-1-oxidopyrimidin-1-ium-5-yl)-1-(6-methylsulfonylpyrazin-2-yl)indol-2-one [Example 15] | 218 | – |
| Cc1ncc(-c2ccc3c(c2)N(c2ccc4ccsc4c2)C(=O)C3(C)C)cn1 [Example 1, 1-(Benzo[b]thiophen-6-yl)-3,3-dimethyl-6-(2-methylpyrimidin-5-yl)indolin-2-one] | 189 | – |
| Cc1ncc(-c2ccc3c(c2)N(c2cccc4sccc24)C(=O)C3(C)C)cn1 [Example 2, 1-(Benzo[b]thiophen-4-yl)-3,3-dimethyl-6-(2-methylpyrimidin-5-yl)indolin-2-one] | 844 | – |
| Cc1ncc(-c2ccc3c(c2)N(c2cncc(S(C)(=O)=O)c2)C(=O)C3(C)C)cn1 [Example 3, 3,3-Dimethyl-6-(2-methylpyrimidin-5-yl)-1-(5-(methylsulfonyl)pyridin-3-yl)indolin-2-one] | 32.1 | Inhibition, ip of L-687,414-induced hyperlocomotion [1]: 92.8%; SmartCube similarity to major classes of compounds [2]: similarity to atypical antipsychotics; discrimination rate vs Clozapine (1.0 mg/kg) ([2]; test compound 3 mg/kg i.p.): 0.58; discrimination rate vs Olanzapine (0.25 mg/kg) ([2]; test compound 3 mg/kg i.p.): 0.60; discrimination rate vs Risperidone (0.06 mg/kg) ([2]; test compound 3 mg/kg i.p.): 0.67 |
| Cc1ncc(-c2ccc3c(c2)N(c2cncc(S(C)(=O)=O)n2)C(=O)C3(C)C)cn1 [Example 4, 3,3-Dimethyl-6-(2-methylpyrimidin-5-yl)-1-(6-(methylsulfonyl)pyrazin-2-yl)indolin-2-one] | 40.1 | – |
| Cc1ncc(-c2ccc3c(c2)N(c2cccc(S(C)(=O)=O)c2)C(=O)C3(C)C)cn1 [Example 5, 3,3-Dimethyl-6-(2-methylpyrimidin-5-yl)-1-(3-(methylsulfonyl)phenyl)indolin-2-one] | 106 | Inhibition, ip of L-687,414-induced hyperlocomotion [1]: 96%; SmartCube similarity to major classes of compounds [2]: similarity to atypical antipsychotics; discrimination rate vs Clozapine (1.0 mg/kg) ([2]; test compound 5 mg/kg i.p.): 0.55; discrimination rate vs Olanzapine (0.25 mg/kg) ([2]; test compound 5 mg/kg i.p.): 0.54; discrimination rate vs Risperidone (0.06 mg/kg) ([2]; test compound 5 mg/kg i.p.): 0.52 |
| Cc1ncc(-c2ccc3c(c2)N(c2cncc(S(=O)(=O)N(C)C)c2)C(=O)C3(C)C)cn1 [Example 6, 5-(3,3-Dimethyl-6-(2-methylpyrimidin-5-yl)-2-oxoindolin-1-yl)-N,N-dimethylpyridine-3-sulfonamide] | 44.9 | – |
| Cc1ncc(-c2ccc3c(c2)N(c2cncc(S(=O)(=O)C(C)C)c2)C(=O)C3(C)C)cn1 [Example 7, 1-(5-(Isopropylsulfonyl)pyridin-3-yl)-3,3-dimethyl-6-(2-methylpyrimidin-5-yl)indolin-2-one] | 135 | – |
| Cc1ncc(-c2ccc3c(c2)N(c2cncc(S(=O)(=O)C4CC4)c2)C(=O)C3(C)C)cn1 [Example 8, 1-(5-(Cyclopropylsulfonyl)pyridin-3-yl)-3,3-dimethyl-6-(2-methylpyrimidin-5-yl)indolin-2-one] | 40 | – |
| CSc1cncc(N2C(=O)C(C)(C)c3ccc(-c4cnc(C)nc4)cc32)c1 [Example 9, 3,3-Dimethyl-6-(2-methylpyrimidin-5-yl)-1-(5-(methylthio)pyridin-3-yl)indolin-2-one] | 218 | – |
| Cc1ncc(-c2ccc3c(c2)N(c2cncc(S(N)(=O)=O)c2)C(=O)C3(C)C)cn1 [Example 10, 5-(3,3-Dimethyl-6-(2-methylpyrimidin-5-yl)-2-oxoindolin-1-yl)pyridine-3-sulfonamide] | 128 | – |
| Cc1ncc(-c2ccc3c(c2)N(c2cncc(S(=O)(=O)N4CCC4)c2)C(=O)C3(C)C)cn1 [Example 11, 1-(5-(Azetidin-1-ylsulfonyl)pyridin-3-yl)-3,3-dimethyl-6-(2-methylpyrimidin-5-yl)indolin-2-one] | 169 | – |
| COCCN(C)S(=O)(=O)c1cncc(N2C(=O)C(C)(C)c3ccc(-c4cnc(C)nc4)cc32)c1 [Example 12, 5-(3,3-dimethyl-6-(2-methylpyrimidin-5-yl)-2-oxoindolin-1-yl)-N-(2-methoxyethyl)-N-methylpyridine-3-sulfonamide] | 79.3 | – |
| CNS(=O)(=O)c1cncc(N2C(=O)C(C)(C)c3ccc(-c4cnc(C)nc4)cc32)c1 [Example 13, 5-(3,3-Dimethyl-6-(2-methylpyrimidin-5-yl)-2-oxoindolin-1-yl)-N-methylpyridine-3-sulfonamide] | 71.7 | – |
| Cc1ncc(-c2ccc3c(c2)N(c2cnc(C4CC4)c(S(C)(=O)=O)c2)C(=O)C3(C)C)cn1 [Example 14, 1-(6-Cyclopropyl-5-(methylsulfonyl)pyridin-3-yl)-3,3-dimethyl-6-(2-methylpyrimidin-5-yl)indolin-2-one] | 38.5 | – |
| Cc1cncc(-c2ccc3c(c2)N(c2cncc(S(C)(=O)=O)c2)C(=O)C3(C)C)c1 [Example 16, 3,3-Dimethyl-6-(5-methylpyridin-3-yl)-1-(5-(methylsulfonyl)pyridin-3-yl)indolin-2-one] | 313 | – |
| Cc1ncc(-c2ccc3c(c2)N(c2cncc(S(C)(=O)=O)c2)C(=O)C3(C)C)cc1F [Example 17, 6-(5-Fluoro-6-methylpyridin-3-yl)-3,3-dimethyl-1-(5-(methylsulfonyl)pyridin-3-yl)indolin-2-one] | 27 | – |
| Cc1ncc(-c2ccc3c(c2)N(c2cnc(S(C)(=O)=O)cn2)C(=O)C3(C)C)cn1 [Example 18, 3,3-Dimethyl-6-(2-methylpyrimidin-5-yl)-1-(5-(methylsulfonyl)pyrazin-2-yl)indolin-2-one] | 27 | – |
| Cc1ncc(-c2ccc3c(c2)N(c2ccc(S(C)(=O)=O)cn2)C(=O)C3(C)C)cn1 [Example 19, 3,3-Dimethyl-6-(2-methylpyrimidin-5-yl)-1-(5-(methylsulfonyl)pyridin-2-yl)indolin-2-one] | 157 | Inhibition, ip of L-687,414-induced hyperlocomotion [1]: 93.5%; SmartCube similarity to major classes of compounds [2]: similarity to atypical antipsychotics; discrimination rate vs Clozapine (1.0 mg/kg) ([2]; test compound 5 mg/kg i.p.): 0.54; discrimination rate vs Olanzapine (0.25 mg/kg) ([2]; test compound 5 mg/kg i.p.): 0.52; discrimination rate vs Risperidone (0.06 mg/kg) ([2]; test compound 5 mg/kg i.p.): 0.50 |
| Cc1ncc(-c2ccc3c(c2)N(c2cncc(S(C)(=O)=O)c2)C(=O)C32CCC2)cn1 [Example 20, 6′-(2-Methylpyrimidin-5-yl)-1′-(5-(methylsulfonyl)pyridin-3-yl)spiro[cyclobutane-1,3′-indolin]-2′-one] | 230 | – |
